PubChem BioAssay (NCI)
Values joined by “and” are separate entries in the source; they are usually repeats but may differ in a detail not shown here. Equal entries are not always repeated.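 1) Cells in 96-well plates. 2) Compound, 48 h, 5 concentrations. 3) Linear interpolation between surrounding doses. 4) Unreached endpoint = highest concentration. Abbreviation: GI50, concentration required for 50% inhibition of growth. TGI: total growth inhibition.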

Tests used:
Experiment in all cases: NCI tumour cell line growth inhibition, 48 h
HCT-116 colon = test system: HCT-116 colon
SN12C renal = test system: SN12C renal
OVCAR-4 ovarian = test system: OVCAR-4 ovarian
DU-145 prostate = test system: DU-145 prostate
ACHN renal = test system: ACHN renal
MDA-MB-231 breast = test system: MDA-MB-231 breast
KM20L2 colon = test system: KM20L2 colon
SK-MEL-2 melanoma = test system: SK-MEL-2 melanoma
HOP-62 NSCLC = test system: HOP-62 NSCLC
NCI-H522 lung = test system: NCI-H522 lung
MALME-3M melanoma = test system: MALME-3M melanoma
UACC-257 melanoma = test system: UACC-257 melanoma
SK-OV-3 ovarian = test system: SK-OV-3 ovarian
SNB-78 CNS = test system: SNB-78 CNS
UACC-62 melanoma = test system: UACC-62 melanoma
HOP-18 NSCLC = test system: HOP-18 NSCLC
HCT-15 colon = test system: HCT-15 colon
HT29 colon = test system: HT29 colon
SR leukemia = test system: SR leukemia
CAKI-1 renal = test system: CAKI-1 renal
M14 melanoma = test system: M14 melanoma
KM12 colon = test system: KM12 colon
A498 renal = test system: A498 renal
MOLT-4 leukemia = test system: MOLT-4 leukemia
SF-295 CNS = test system: SF-295 CNS
CCRF-CEM leukemia = test system: CCRF-CEM leukemia
SNB-19 CNS = test system: SNB-19 CNS
NCI-H460 lung = test system: NCI-H460 lung
A549 NSCLC = test system: A549 NSCLC
SF-268 CNS = test system: SF-268 CNS
LOX IMVI melanoma = test system: LOX IMVI melanoma
IGROV1 ovarian = test system: IGROV1 ovarian
T-47D breast = test system: T-47D breast
TK-10 renal = test system: TK-10 renal
RXF 393 renal = test system: RXF 393 renal
U251 CNS = test system: U251 CNS
HOP-92 NSCLC = test system: HOP-92 NSCLC
XF 498 CNS = test system: XF 498 CNS
DMS 114 small cell lung = test system: DMS 114 small cell lung
P388/ADR leukemia = test system: P388/ADR leukemia
SK-MEL-5 melanoma = test system: SK-MEL-5 melanoma
DLD-1 colon = test system: DLD-1 colon
NCI/ADR-RES ovarian = test system: NCI/ADR-RES ovarian
EKVX NSCLC = test system: EKVX NSCLC
HCC-2998 colon = test system: HCC-2998 colon
MCF7 breast = test system: MCF7 breast
COLO 205 colon = test system: COLO 205 colon
MDA-N = test system: MDA-N
OVCAR-5 ovarian = test system: OVCAR-5 ovarian
BT-549 breast = test system: BT-549 breast
SF-539 CNS = test system: SF-539 CNS
UO-31 renal = test system: UO-31 renal
SNB-75 CNS = test system: SNB-75 CNS
SW-620 colon = test system: SW-620 colon
NCI-H226 lung = test system: NCI-H226 lung
SK-MEL-28 melanoma = test system: SK-MEL-28 melanoma
DMS 273 small cell lung = test system: DMS 273 small cell lung
786-0 renal = test system: 786-0 renal
K-562 leukemia = test system: K-562 leukemia
M19-MEL melanoma = test system: M19-MEL melanoma
HL-60(TB) leukemia = test system: HL-60(TB) leukemia
NCI-H23 lung = test system: NCI-H23 lung
SN12K1 renal = test system: SN12K1 renal
MDA-MB-435 = test system: MDA-MB-435
PC-3 prostate = test system: PC-3 prostate
P388 leukemia = test system: P388 leukemia
RPMI-8226 leukemia = test system: RPMI-8226 leukemia

CCCCCCCCCCS(=O)CC(CO)NC(=O)/C=C/c1c(C)[nH]c(=O)[nH]c1=O (stereo not given)
TGI (HCT-116 colon): 5.61 µM and 31.9 µM | GI50 (SN12C renal): 10.3 µM | TGI (OVCAR-4 ovarian): 1.88 µM | TGI (DU-145 prostate): > 100 µM | TGI (ACHN renal): 28.5 µM | TGI (MDA-MB-231 breast): 15.9 µM | TGI (KM20L2 colon): 6 µM | GI50 (SK-MEL-2 melanoma): 25.8 µM | GI50 (HOP-62 NSCLC): 4.8 µM | TGI (HOP-62 NSCLC): 6.49 µM and 18.4 µM | GI50 (NCI-H522 lung): 10.6 µM | GI50 (MALME-3M melanoma): 23.9 µM | GI50 (UACC-257 melanoma): 20.4 µM | TGI (UACC-257 melanoma): 9.58 µM and 43.7 µM | GI50 (SK-OV-3 ovarian): 11 µM | TGI (SK-OV-3 ovarian): 12.7 µM and 32.1 µM | TGI (SNB-78 CNS): 5.65 µM | GI50 (UACC-62 melanoma): 9.8 µM | TGI (UACC-62 melanoma): 4.08 µM and 24.5 µM | TGI (HOP-18 NSCLC): 16.2 µM | GI50 (HCT-15 colon): 4.4 µM | TGI (HCT-15 colon): 14.8 µM and 21.5 µM | GI50 (HT29 colon): 6.27 µM | TGI (HT29 colon): 22.7 µM and 19.9 µM | TGI (SR leukemia): > 100 µM | TGI (CAKI-1 renal): 4.2 µM and 31.1 µM | TGI (M14 melanoma): 24.4 µM | TGI (KM12 colon): 3.27 µM | GI50 (A498 renal): 23.4 µM | TGI (A498 renal): 7.98 µM and 62.1 µM | GI50 (MOLT-4 leukemia): 8.74 µM | TGI (MOLT-4 leukemia): 4.68 µM and 45.5 µM | GI50 (SF-295 CNS): 1.15 µM and 7.04 µM | TGI (SF-295 CNS): 8.88 µM and 22.8 µM | GI50 (CCRF-CEM leukemia): 4.08 µM | TGI (CCRF-CEM leukemia): 2.41 µM and 13.2 µM | TGI (SNB-19 CNS): 2.64 µM and 25.7 µM | TGI (NCI-H460 lung): 1.97 µM and 15.3 µM | GI50 (A549 NSCLC): 14.2 µM | TGI (A549 NSCLC): 35.3 µM and 31.8 µM | TGI (SF-268 CNS): 2.01 µM | GI50 (LOX IMVI melanoma): 13.5 µM | TGI (LOX IMVI melanoma): 10.2 µM and 27.1 µM | GI50 (IGROV1 ovarian): 2.77 µM | TGI (IGROV1 ovarian): 13.5 µM and 8.81 µM | TGI (T-47D breast): 39.6 µM | TGI (TK-10 renal): 4.02 µM | GI50 (RXF 393 renal): 10 µM | GI50 (U251 CNS): 17.4 µM | GI50 (HOP-92 NSCLC): 10.5 µM | TGI (XF 498 CNS): 0.229 µM | TGI (DMS 114 small cell lung): 1.42 µM | TGI (P388/ADR leukemia): 24.5 µM | GI50 (SK-MEL-5 melanoma): 18.2 µM | TGI (SK-MEL-5 melanoma): 4.52 µM and 40.4 µM | TGI (DLD-1 colon): 5.28 µM | GI50 (NCI/ADR-RES ovarian): 17.2 µM | TGI (NCI/ADR-RES ovarian): 37.9 µM and 34.2 µM | GI50 (EKVX NSCLC): 28.3 µM | GI50 (HCC-2998 colon): 3.26 µM | TGI (HCC-2998 colon): 1.9 µM and 17.5 µM | GI50 (MCF7 breast): 23.4 µM | GI50 (COLO 205 colon): 2.96 µM | TGI (MDA-N): 57.5 µM | GI50 (OVCAR-5 ovarian): 2.86 µM | TGI (OVCAR-5 ovarian): 11.6 µM and 10.2 µM | TGI (BT-549 breast): 25.1 µM | GI50 (SF-539 CNS): 14.9 µM | GI50 (UO-31 renal): 17.2 µM | TGI (UO-31 renal): 8.68 µM and 33.8 µM | TGI (SNB-75 CNS): 1.76 µM | GI50 (SW-620 colon): 15.7 µM | TGI (NCI-H226 lung): 4.21 µM | GI50 (SK-MEL-28 melanoma): 43.9 µM | TGI (DMS 273 small cell lung): 4.04 µM | TGI (786-0 renal): 27 µM | GI50 (K-562 leukemia): 26.4 µM | TGI (M19-MEL melanoma): 4.3 µM | TGI (HL-60(TB) leukemia): 4.16 µM | GI50 (NCI-H23 lung): 29.5 µM | TGI (SN12K1 renal): 3.9 µM | TGI (MDA-MB-435): 49.1 µM | TGI (PC-3 prostate): 7.79 µM | TGI (P388 leukemia): 1.62 µM | GI50 (RPMI-8226 leukemia): 10.6 µM
